Laboratory results reported in PubChem BioAssay AID1259411 (Chemical Carcinogenesis Research Information System (CCRIS), 2018).
Calls of active or inactive are those of the source. How the calls were made is not given here.

Test system: rodent carcinogenicity bioassays, tumor incidence
Test: CCRIS carcinogenicity studies
Method in brief: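 Archive of carcinogenicity, mutagenicity, tumor promotion and tumor inhibition results drawn from journals, NCI reports and other sources, expert-reviewed; covers 1985-2011 and is no longer updated.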

## CN=[N+](C)[O-]
Species: MOUSE, Strain/Sex: A/J/MALE,FEMALE, Route: INTRAPERITONEAL INJECTION, Dose: 5, 10 MG/KG BW ONCE A WEEK FOR 4 WKS, Tumor Site: Type of Lesion: COLON: TUMORS (ADENOMA), % OF TUMOR BEARING MICE WAS 10X HIGHER IN 10 MG/KG GROUP
  carcinogen call: active; positive; all animals given 20 mg/kg died
Species: MOUSE, Strain/Sex: A/J/MALE,FEMALE, Route: INTRAPERITONEAL INJECTION, Dose: 10 MG/KG ONCE WEEKLY FOR 2, 4, 8 WKS, Tumor Site: Type of Lesion: COLON: ADENOMA
  carcinogen call: active; positive; response of approximately 25% with 2 doses to almost 100% at 4 or 8 d
Species: MOUSE, Strain/Sex: A/J/MALE,FEMALE, Route: SUBCUTANEOUS INJECTION, Dose: 10 MG/KG BW ONCE A WK FOR 4 WK, Tumor Site: Type of Lesion: COLON: ADENOMA
  carcinogen call: active; positive; almost 80% incidence
Species: MOUSE, Strain/Sex: AKR/J/MALE,FEMALE, Route: INTRAPERITONEAL INJECTION, Dose: 10 MG/KG BW WEEKLY FOR 2, 4, 8 WKS (STUDY DURATION: 6 MO), Tumor Site: Type of Lesion: COLON: ADENOMAS
  carcinogen call: only 5% of animals at 4 wk treatment developed tumors
Species: MOUSE, Strain/Sex: AKR/J/MALE,FEMALE, Route: SUBCUTANEOUS, Dose: 10 MG/KG BW WEEKLY FOR 4 WK (STUDY DURATION: 6 MO), Tumor Site: Type of Lesion: COLON: ADENOMA
  carcinogen call: only about 5% developed tumors
Species: MOUSE, Strain/Sex: ICR/MALE, Route: SUBCUTANEOUS, Dose: 0, 0.3 MG/MOUSE IN SALINE 1/WK FOR 20 WK (STUDY DURATION: 36 WK), Tumor Site: Type of Lesion: COLON: ADENOMA OR ADENOCARCINOMA, ADENOMA OR ADENOCARCINOMA OR CARCINOMA, RECTUM: CARCINOMA, BLOOD VESSELS: ANGIOMA OR A, Tumor Site: Type of Lesion: COLON: ADENOMA OR ADENOCARCINOMA, ADENOMA OR ADENOCARCINOMA OR CARCINOMA, RECTUM: CARCINOMA, BLOOD VESSELS: ANGIOMA OR A
  carcinogen call: active; positive
Species: MOUSE, Strain/Sex: SWR/J/MALE,FEMALE, Route: INTRAPERITONEAL INJECTION, Dose: 10 MG/KG BW FOR 2, 4, OR 8 WKS, ONCE A WK (STUDY DURATION: 6 MO), Tumor Site: Type of Lesion: COLON: ADENOMA
  carcinogen call: active; positive- tumor incidence 30-100%
Species: MOUSE, Strain/Sex: SWR/J/MALE,FEMALE, Route: SUBCUTANEOUS INJECTION, Dose: 10 MG/KG BW ONCE A WK FOR 4 WK, Tumor Site: Type of Lesion: COLON: ADENOMA
  carcinogen call: active; positive; response about 30%
Species: RAT, Strain/Sex: F344/FEMALE, Route: INTRAVESICULAR, Dose: 0, 2 MG IN 0.2 ML ETHANOL: DEIONIZED WATER (1:3) 2/WK FOR 22 WK (TOTAL DOSE 1.2 MMOL) (STUDY DURATION: LIFESPAN), Tumor Site: Type of Lesion: COLON: TUMOR, ZYMBAL GLAND: TUMOR
  carcinogen call: active; positive
Species: RAT, Strain/Sex: F344/FEMALE, Route: SUBCUTANEOUS, Dose: 8 MG/KG 1/WK FOR 10 WK, Tumor Site: Type of Lesion: COLON: ADENOMA, CARCINOMA, ADENOCARCINOMA
  carcinogen call: active; positive
Species: RAT, Strain/Sex: F344/MALE, Route: ORAL, Dose: 0, 1.0, 4.0 MG/WK IN DRINKING WATER FOR 30 WK (STUDY DURATION: LIFETIME), Dose: 0, 1.0, 4.0 MG/WK IN DRINKING WATER FOR 30 WK (STUDY DURATION: LIFETIME), Tumor Site: Type of Lesion: LIVER: CARCINOMA, SARCOMA, KIDNEY: INTERSTITIAL CELL SARCOMA OR NEUROSARCOMA OR RENAL CARCINOMA, COLON: ADENOMA OR CARCI, Tumor Site: Type of Lesion: LIVER: CARCINOMA, SARCOMA, KIDNEY: INTERSTITIAL CELL SARCOMA OR NEUROSARCOMA OR RENAL CARCINOMA, COLON: ADENOMA OR CARCI
  carcinogen call: active; positive
Species: RAT, Strain/Sex: F344/MALE, Route: ORAL, Dose: 0, 10, 40 MG/ML IN A NEUTRAL DEIONIZED DRINKING WATER SOLUTION 5 D/WK FOR 30 WK (TOTAL DOSE 30; 120 MG) (STUDY DURATION:, Dose: 0, 10, 40 MG/ML IN A NEUTRAL DEIONIZED DRINKING WATER SOLUTION 5 D/WK FOR 30 WK (TOTAL DOSE 30; 120 MG) (STUDY DURATION:, Tumor Site: Type of Lesion: LIVER: CARCINOMA, HEMANGIOSARCOMA, KIDNEY: TUMOR, COLON: ADENOCARCINOMA, ADENOMA, Tumor Site: Type of Lesion: LIVER: CARCINOMA, HEMANGIOSARCOMA, KIDNEY: TUMOR, COLON: ADENOCARCINOMA, ADENOMA
  carcinogen call: active; positive
Species: RAT, Strain/Sex: SPRAGUE-DAWLEY/MALE, Route: SUBCUTANEOUS, Dose: 8 MG/KG 1/WK FOR 24 WK, Tumor Site: Type of Lesion: INTESTINES (LARGE AND SMALL): ADENOCARCINOMA
  carcinogen call: active; positive
Species: RAT, Strain/Sex: STRAIN-BD, Route: SUBCUTANEOUS, Dose: >6 MG/KG ONCE, Tumor Site: Type of Lesion: COLON: ADENOCARCINOMA, KIDNEY: NEPHROBLASTOMA
  carcinogen call: active; positive
Species: RAT, Strain/Sex: STRAIN-BD, Route: SUBCUTANEOUS, Dose: >6 MG/KG ONCE, Tumor Site: Type of Lesion: COLON: ADENOCARCINOMA, NERVOUS SYSTEM: NEUROBLASTOMA, KIDNEY: NEPHROBLASTOMA, Tumor Site: Type of Lesion: COLON: ADENOCARCINOMA, NERVOUS SYSTEM: NEUROBLASTOMA, KIDNEY: NEPHROBLASTOMA
  carcinogen call: active; positive
Species: RAT, Strain/Sex: WISTAR/MALE, Route: SUBCUTANEOUS, Dose: 0, 7.4 MG/KG IN 0.9% SALINE 1/WK FOR 10 WK ADMINISTERED TO RATS MAINTAINED ON NORMAL-PROTEIN (25% CASEIN), LOW-PROTEIN (, Tumor Site: Type of Lesion: COLON: TUMOR
  carcinogen call: active; positive

## O=S(=O)(O)c1cc(S(=O)(=O)O)c2c(N=Nc3ccccc3)c(O)ccc2c1
Species: MOUSE, Strain/Sex: B6C3F1/FEMALE, Route: ORAL, Dose: 0, 3000, 6000 PPM IN DIET FOR 103 WK (STUDY DURATION: 104 WK), Dose: 0, 3000, 6000 PPM IN DIET FOR 103 WK (STUDY DURATION: 104 WK)
  carcinogen call: inactive; negative
Species: MOUSE, Strain/Sex: B6C3F1/MALE, Route: ORAL, Dose: 0, 3000, 6000 PPM IN DIET FOR 103 WK (STUDY DURATION: 104 WK), Dose: 0, 3000, 6000 PPM IN DIET FOR 103 WK (STUDY DURATION: 104 WK)
  carcinogen call: inactive; negative
Species: RAT, Strain/Sex: F344/FEMALE, Route: ORAL, Dose: 0, 1000, 3000 PPM IN DIET FOR 103 WK (STUDY DURATION: 104 WK), Dose: 0, 1000, 3000 PPM IN DIET FOR 103 WK (STUDY DURATION: 104 WK)
  carcinogen call: inactive; negative
Species: RAT, Strain/Sex: F344/MALE, Route: ORAL, Dose: 0, 1000, 3000 PPM IN DIET FOR 103 WK (STUDY DURATION: 104 WK), Dose: 0, 1000, 3000 PPM IN DIET FOR 103 WK (STUDY DURATION: 104 WK)
  carcinogen call: inactive; negative

## COc1ccc([N+](=O)[O-])cc1N=Nc1c(O)c(C(=O)Nc2cccc([N+](=O)[O-])c2)cc2ccccc12
Species: MOUSE, Strain/Sex: B6C3F1/FEMALE, Route: ORAL, Dose: 0, 10000, 25000, 50000 PPM IN DIET FOR 720 D (STUDY DURATION: 104 WK), Dose: 0, 10000, 25000, 50000 PPM IN DIET FOR 720 D (STUDY DURATION: 104 WK)
  carcinogen call: inactive; negative
Species: MOUSE, Strain/Sex: B6C3F1/MALE, Route: ORAL, Dose: 0, 10000, 25000, 50000 PPM IN DIET FOR 720 D (STUDY DURATION: 104 WK), Dose: 0, 10000, 25000, 50000 PPM IN DIET FOR 720 D (STUDY DURATION: 104 WK)
  carcinogen call: inactive; negative
Species: RAT, Strain/Sex: F344/FEMALE, Route: ORAL, Dose: 0, 10000, 25000, 50000 PPM IN DIET FOR 720 D (STUDY DURATION: 105 WK), Dose: 0, 10000, 25000, 50000 PPM IN DIET FOR 720 D (STUDY DURATION: 105 WK)
  carcinogen call: inactive; negative
Species: RAT, Strain/Sex: F344/MALE, Route: ORAL, Dose: 0, 10000, 25000, 50000 PPM IN DIET FOR 103 WK (STUDY DURATION: 105 WK), Dose: 0, 10000, 25000, 50000 PPM IN DIET FOR 103 WK (STUDY DURATION: 105 WK), Tumor Site: Type of Lesion: KIDNEY: RENAL TUBULE ADENOMA OR CARCINOMA, MULTIPLE ORGANS: MONONUCLEAR CELL LEUKEMIA
  carcinogen call: equivocal
